Legend:
[1] = molecular target: Tyrosine-protein kinase ABL2 (Homo sapiens) (UniProt P42684); test: Inhibition of human recombinant ARG expressed in sf21 cells assessed as remaining activity at 10 uM preincubated for 15 mins followed by Poly(Glu:Tyr) addition measured after 30 mins in presence of [gamma-32P]ATP by […] assay
[2] = molecular target: Aurora kinase B (Homo sapiens) (UniProt Q96GD4); test: Inhibition of human AURORA B assessed as remaining activity at 10 uM preincubated for 15 mins followed by substrate addition for 30 mins in presence of [gamma-32P]ATP by […] assay
Sequence of Aurora kinase B (Homo sapiens) (Q96GD4 whole entry): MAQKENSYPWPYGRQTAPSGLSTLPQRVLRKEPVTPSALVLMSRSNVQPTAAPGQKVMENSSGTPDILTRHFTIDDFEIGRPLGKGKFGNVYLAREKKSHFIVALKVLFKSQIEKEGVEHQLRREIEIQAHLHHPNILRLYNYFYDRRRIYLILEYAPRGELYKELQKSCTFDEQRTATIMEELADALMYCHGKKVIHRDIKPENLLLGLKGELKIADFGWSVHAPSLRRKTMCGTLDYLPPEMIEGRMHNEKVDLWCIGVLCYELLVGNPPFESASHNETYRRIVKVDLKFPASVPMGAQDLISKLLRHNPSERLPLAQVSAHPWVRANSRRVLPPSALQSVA

[3] = molecular target: Tyrosine-protein kinase receptor UFO (Homo sapiens) (UniProt P30530); test: Inhibition of recombinant human AXL expressed in insect Sf21 cells assessed as remaining activity at 10 uM preincubated for 15 mins followed by poly(Glu:Tyr) substrate addition for 30 mins in presence of [gamma-32P]ATP by […] assay
Sequence of Tyrosine-protein kinase receptor UFO (Homo sapiens) (P30530 whole entry): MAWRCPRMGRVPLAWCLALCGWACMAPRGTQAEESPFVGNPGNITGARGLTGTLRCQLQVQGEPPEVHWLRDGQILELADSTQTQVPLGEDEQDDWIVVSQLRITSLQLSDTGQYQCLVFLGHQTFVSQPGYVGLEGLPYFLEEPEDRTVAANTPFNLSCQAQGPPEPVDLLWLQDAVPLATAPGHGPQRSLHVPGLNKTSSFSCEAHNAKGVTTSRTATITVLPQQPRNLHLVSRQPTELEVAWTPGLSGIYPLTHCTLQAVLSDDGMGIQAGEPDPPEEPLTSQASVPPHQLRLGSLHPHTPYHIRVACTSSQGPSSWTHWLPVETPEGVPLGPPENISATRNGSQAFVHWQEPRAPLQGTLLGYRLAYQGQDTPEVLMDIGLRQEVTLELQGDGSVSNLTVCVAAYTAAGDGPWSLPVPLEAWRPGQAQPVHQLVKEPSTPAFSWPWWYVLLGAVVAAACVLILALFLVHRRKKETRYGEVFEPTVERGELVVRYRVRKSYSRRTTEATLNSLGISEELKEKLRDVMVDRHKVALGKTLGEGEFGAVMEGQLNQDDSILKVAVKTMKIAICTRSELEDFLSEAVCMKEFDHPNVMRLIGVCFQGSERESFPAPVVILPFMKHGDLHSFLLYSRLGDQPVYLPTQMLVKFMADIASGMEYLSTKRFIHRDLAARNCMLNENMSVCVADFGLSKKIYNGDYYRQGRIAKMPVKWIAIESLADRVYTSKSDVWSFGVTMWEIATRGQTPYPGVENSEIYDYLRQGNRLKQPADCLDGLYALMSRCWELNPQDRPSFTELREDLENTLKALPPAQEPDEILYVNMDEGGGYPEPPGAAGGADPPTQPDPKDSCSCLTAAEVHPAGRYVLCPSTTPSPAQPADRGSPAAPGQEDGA

[4] = molecular target: Mast/stem cell growth factor receptor Kit (Homo sapiens) (UniProt P10721); test: Inhibition of recombinant human c-Kit expressed in insect High-5 cells assessed as remaining activity at 10 uM preincubated for 15 mins followed by poly(Glu:Tyr) substrate addition for 30 mins in presence of [gamma-32P]ATP by […] assay; settings: BTI-TN-5B1-4
[5] = molecular target: Epidermal growth factor receptor (Homo sapiens) (UniProt P00533); test: Inhibition of human EGFR assessed as remaining activity at 10 uM in presence of [gamma-32P]ATP by […] assay
[6] = molecular target: Mitogen-activated protein kinase 8 (Homo sapiens) (UniProt P45983); test: Inhibition of recombinant human JNK1alpha1 expressed in insect Sf21 cells assessed as remaining activity at 10 uM preincubated for 15 mins followed by ATF2 substrate addition for 30 mins in presence of [gamma-32P]ATP by […] assay
[7] = molecular target: Vascular endothelial growth factor receptor 2 (Homo sapiens) (UniProt P35968); test: Inhibition of recombinant human KDR expressed in insect Sf21 cells assessed as remaining activity at 10 uM preincubated for 15 mins followed by poly(Glu:Tyr) substrate addition for 30 mins in presence of [gamma-32P]ATP by […] assay
[8] = molecular target: Tyrosine-protein kinase Lck (Homo sapiens) (UniProt P06239); test: Inhibition of recombinant human LCK expressed in insect cells assessed as remaining activity at 10 uM preincubated for 15 mins followed by poly(Glu:Tyr) substrate addition for 30 mins in presence of [gamma-32P]ATP by […] assay
Sequence of Tyrosine-protein kinase Lck (Homo sapiens) (P06239 2-509 limits assumed): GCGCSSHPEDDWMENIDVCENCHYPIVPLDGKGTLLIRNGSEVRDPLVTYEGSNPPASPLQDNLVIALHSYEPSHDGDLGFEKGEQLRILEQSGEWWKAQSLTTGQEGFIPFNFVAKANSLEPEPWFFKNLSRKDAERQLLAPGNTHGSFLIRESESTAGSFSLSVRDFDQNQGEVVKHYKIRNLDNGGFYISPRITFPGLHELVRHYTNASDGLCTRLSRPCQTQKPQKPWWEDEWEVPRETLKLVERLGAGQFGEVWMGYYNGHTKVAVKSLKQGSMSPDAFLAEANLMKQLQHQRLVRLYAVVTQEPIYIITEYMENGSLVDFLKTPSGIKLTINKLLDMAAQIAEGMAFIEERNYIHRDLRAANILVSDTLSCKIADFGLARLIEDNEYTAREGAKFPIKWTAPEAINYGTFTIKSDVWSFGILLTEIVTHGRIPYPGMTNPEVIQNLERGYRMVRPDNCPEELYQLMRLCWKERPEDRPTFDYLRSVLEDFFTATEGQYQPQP

[9] = molecular target: Mitogen-activated protein kinase 1 (Homo sapiens) (UniProt P28482); test: Inhibition of recombinant human MAPK1 expressed in Escherichia coli assessed as remaining activity at 10 uM preincubated for 15 mins followed by myelin basic protein substrate addition for 30 mins in presence of [gamma-32P]ATP by […] assay
Sequence of Mitogen-activated protein kinase 1 (Homo sapiens) (P28482 whole entry): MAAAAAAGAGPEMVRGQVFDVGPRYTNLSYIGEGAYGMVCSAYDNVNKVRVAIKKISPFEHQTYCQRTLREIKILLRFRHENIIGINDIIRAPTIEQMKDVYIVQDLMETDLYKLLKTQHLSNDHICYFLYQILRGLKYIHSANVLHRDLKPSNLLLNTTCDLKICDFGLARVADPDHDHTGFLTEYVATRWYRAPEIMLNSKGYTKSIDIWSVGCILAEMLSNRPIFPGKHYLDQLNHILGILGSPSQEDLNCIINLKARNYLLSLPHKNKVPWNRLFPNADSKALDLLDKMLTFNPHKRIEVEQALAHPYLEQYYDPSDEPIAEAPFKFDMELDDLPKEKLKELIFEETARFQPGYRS

[10] = molecular target: Dual specificity mitogen-activated protein kinase kinase 7 (Homo sapiens) (UniProt O14733); test: Inhibition of human MKK7beta assessed as remaining activity at 10 uM in presence of [gamma-32P]ATP by […] assay
[11] = molecular target: cAMP-dependent protein kinase catalytic subunit alpha (Homo sapiens) (UniProt P17612); test: Inhibition of human recombinant PRKACA expressed in Escherichia coli assessed as remaining activity at 10 uM preincubated for 15 mins followed by PKA substrate peptide addition measured after 30 mins in presence of [gamma-32P]ATP by […] assay
[12] = molecular target: Platelet-derived growth factor receptor alpha (Homo sapiens) (UniProt P16234); test: Inhibition of recombinant human PDGFR-alpha expressed in insect Sf21 cells assessed as remaining activity at 10 uM preincubated for 15 mins followed by poly(Glu:Tyr) substrate addition for 30 mins in presence of [gamma-32P]ATP by […] assay
Sequence of Platelet-derived growth factor receptor alpha (Homo sapiens) (P16234 whole entry): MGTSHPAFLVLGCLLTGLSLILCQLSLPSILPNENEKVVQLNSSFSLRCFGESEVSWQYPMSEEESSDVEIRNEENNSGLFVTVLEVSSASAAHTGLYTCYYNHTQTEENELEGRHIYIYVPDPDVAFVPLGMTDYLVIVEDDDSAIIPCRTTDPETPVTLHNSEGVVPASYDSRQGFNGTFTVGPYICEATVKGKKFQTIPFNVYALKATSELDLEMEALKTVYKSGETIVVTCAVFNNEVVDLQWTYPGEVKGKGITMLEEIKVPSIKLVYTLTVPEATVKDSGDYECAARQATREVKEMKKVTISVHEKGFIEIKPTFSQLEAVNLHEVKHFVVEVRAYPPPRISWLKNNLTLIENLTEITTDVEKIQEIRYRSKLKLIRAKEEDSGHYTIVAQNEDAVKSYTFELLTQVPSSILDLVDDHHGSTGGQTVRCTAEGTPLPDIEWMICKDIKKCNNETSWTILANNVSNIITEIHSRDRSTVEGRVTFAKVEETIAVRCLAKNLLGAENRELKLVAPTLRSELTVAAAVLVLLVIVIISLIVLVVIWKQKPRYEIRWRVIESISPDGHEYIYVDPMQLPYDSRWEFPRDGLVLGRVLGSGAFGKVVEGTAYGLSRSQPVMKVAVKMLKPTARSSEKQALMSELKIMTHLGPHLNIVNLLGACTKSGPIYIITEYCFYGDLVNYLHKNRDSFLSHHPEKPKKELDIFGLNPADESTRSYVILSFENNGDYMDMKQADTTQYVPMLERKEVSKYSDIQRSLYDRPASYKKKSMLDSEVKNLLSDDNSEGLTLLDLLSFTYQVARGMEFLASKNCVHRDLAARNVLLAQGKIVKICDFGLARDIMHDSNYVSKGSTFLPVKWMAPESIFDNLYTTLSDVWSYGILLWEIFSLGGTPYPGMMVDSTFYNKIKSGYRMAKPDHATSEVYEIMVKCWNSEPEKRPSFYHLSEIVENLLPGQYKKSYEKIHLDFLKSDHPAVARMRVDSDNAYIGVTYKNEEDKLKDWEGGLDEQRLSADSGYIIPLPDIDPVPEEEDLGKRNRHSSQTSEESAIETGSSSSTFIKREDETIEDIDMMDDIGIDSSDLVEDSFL

[13] = molecular target: Proto-oncogene tyrosine-protein kinase receptor Ret (Homo sapiens) (UniProt P07949); test: Inhibition of recombinant human RET expressed in insect Sf21 cells assessed as remaining activity at 10 uM preincubated for 15 mins followed by poly(Glu:Tyr) substrate addition for 30 mins in presence of [gamma-32P]ATP by […] assay
[14] = molecular target: Mitogen-activated protein kinase 14 (Homo sapiens) (UniProt Q16539); test: Inhibition of human SAPK2a assessed as remaining activity at 10 uM in presence of [gamma-32P]ATP by […] assay
Sequence of Mitogen-activated protein kinase 14 (Homo sapiens) (Q16539 whole entry): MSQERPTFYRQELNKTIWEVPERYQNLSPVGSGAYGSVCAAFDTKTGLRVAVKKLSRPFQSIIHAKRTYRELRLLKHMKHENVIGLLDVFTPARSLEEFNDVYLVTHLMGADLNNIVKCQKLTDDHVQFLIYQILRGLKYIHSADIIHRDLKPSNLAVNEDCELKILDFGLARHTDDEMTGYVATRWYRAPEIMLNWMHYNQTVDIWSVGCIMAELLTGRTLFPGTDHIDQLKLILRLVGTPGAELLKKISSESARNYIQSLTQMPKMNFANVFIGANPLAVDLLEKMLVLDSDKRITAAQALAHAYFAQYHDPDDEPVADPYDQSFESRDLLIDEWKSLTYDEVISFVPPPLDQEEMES

[15] = molecular target: Mitogen-activated protein kinase 11 (Homo sapiens) (UniProt Q15759); test: Inhibition of human SAPK2b assessed as remaining activity at 10 uM in presence of [gamma-32P]ATP by […] assay
Sequence of Mitogen-activated protein kinase 11 (Homo sapiens) (Q15759 whole entry): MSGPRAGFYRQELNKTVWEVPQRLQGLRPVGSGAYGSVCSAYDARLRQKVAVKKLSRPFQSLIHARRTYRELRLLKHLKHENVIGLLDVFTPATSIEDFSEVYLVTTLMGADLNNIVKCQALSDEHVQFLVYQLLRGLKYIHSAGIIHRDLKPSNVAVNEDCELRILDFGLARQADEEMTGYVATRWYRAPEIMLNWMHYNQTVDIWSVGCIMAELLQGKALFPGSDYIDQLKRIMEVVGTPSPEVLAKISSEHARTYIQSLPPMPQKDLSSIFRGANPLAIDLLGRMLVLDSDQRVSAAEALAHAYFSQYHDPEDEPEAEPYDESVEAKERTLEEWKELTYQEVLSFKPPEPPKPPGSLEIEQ

[16] = molecular target: Mitogen-activated protein kinase 13 (Homo sapiens) (UniProt O15264); test: Inhibition of human SAPK4 assessed as remaining activity at 10 uM in presence of [gamma-32P]ATP by […] assay
[17] = molecular target: Tyrosine-protein kinase SYK (Homo sapiens) (UniProt P43405); test: Inhibition of recombinant human SYK expressed in insect Sf21 cells assessed as remaining activity at 10 uM preincubated for 15 mins followed by poly(Glu:Tyr) substrate addition for 30 mins in presence of [gamma-32P]ATP by […] assay
[18] = molecular target: Non-receptor tyrosine-protein kinase TYK2 (Homo sapiens) (UniProt P29597); test: Inhibition of human TYK2 assessed as remaining activity at 10 uM in presence of [gamma-32P]ATP by […] assay
Angiopoietin-1 receptor = Angiopoietin-1 receptor (Homo sapiens, UniProt Q02763); test: Inhibition of human TIE2 preincubated for 15 mins followed by substrate addition measured after 30 mins in presence of [gamma-32P]ATP by […] assay
Sequence of Angiopoietin-1 receptor (Q02763 whole entry): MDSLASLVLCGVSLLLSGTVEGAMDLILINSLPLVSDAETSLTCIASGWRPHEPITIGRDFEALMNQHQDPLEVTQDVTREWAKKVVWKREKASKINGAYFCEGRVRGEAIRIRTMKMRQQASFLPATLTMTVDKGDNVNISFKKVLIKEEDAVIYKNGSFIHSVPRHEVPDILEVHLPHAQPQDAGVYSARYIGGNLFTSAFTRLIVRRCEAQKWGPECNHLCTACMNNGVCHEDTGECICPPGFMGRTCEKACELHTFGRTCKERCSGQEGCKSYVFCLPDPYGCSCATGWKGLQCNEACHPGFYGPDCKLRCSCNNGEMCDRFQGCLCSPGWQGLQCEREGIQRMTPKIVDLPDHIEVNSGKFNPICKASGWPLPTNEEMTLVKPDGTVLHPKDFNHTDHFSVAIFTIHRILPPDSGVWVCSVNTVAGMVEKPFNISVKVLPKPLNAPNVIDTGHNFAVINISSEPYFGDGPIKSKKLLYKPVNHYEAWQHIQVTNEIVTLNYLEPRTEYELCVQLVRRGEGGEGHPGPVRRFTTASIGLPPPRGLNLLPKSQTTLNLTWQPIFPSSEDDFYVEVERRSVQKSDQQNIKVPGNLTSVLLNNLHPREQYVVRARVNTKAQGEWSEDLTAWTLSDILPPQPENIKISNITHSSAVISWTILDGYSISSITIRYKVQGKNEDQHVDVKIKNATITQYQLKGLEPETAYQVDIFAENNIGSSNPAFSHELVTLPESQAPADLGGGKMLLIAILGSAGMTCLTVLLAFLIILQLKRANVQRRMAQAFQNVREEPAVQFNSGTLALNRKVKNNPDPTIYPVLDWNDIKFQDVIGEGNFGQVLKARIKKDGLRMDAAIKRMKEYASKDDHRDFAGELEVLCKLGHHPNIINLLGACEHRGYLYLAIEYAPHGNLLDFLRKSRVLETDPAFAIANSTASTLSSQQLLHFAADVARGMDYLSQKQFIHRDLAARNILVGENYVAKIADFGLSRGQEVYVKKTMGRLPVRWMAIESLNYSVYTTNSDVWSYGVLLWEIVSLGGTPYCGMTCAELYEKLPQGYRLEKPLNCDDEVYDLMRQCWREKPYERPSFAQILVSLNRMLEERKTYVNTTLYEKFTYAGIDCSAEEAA

[19] = AUC (0 to infinity) in Sprague-Dawley rat at 5 mg/kg, iv up to 24 hrs by LC/MS/MS analysis; type: ADME, organism-based; design: dose 5 mg/kg, route intravenous, time infinity; settings: in vivo
[20] = Clearance in Sprague-Dawley rat at 5 mg/kg, iv up to 24 hrs by LC/MS/MS analysis; type: ADME, organism-based; settings: in vivo
[21] = Volume of distribution at steady state in Sprague-Dawley rat at 5 mg/kg, iv up to 24 hrs by LC/MS/MS analysis; type: ADME, organism-based; settings: in vivo, read-out: Vdss
[22] = Elimination half life in Sprague-Dawley rat at 5 mg/kg, iv by LC/MS/MS analysis; type: ADME, organism-based; settings: in vivo, read-out: beta t1/2 (converted)
[23] = Cmax in Sprague-Dawley rat at 30 mg/kg, po by LC/MS/MS analysis; type: ADME, organism-based; design: dose 30 mg/kg, route oral; settings: in vivo
[24] = Oral bioavailability in Sprague-Dawley rat at 30 mg/kg up to 24 hrs by LC/MS/MS analysis; type: ADME, organism-based; settings: in vivo
cells = settings: Homo sapiens, MV4-11, 48 h
Description: Growth inhibition of human MV4-11 cells expressing FLT3-ITD after 48 hrs by XTT assay

CNCCOc1ccc(-c2sc3nc(-c4cccs4)nc(NN4C(=O)C=C(C)C4=O)c3c2C)cc1.Cl
Activity [1]: 52% | Activity [2]: 42% | Activity [3]: 44% | Activity [4]: 75% | Activity [5]: 87% | Activity [6]: 96% | Activity [7]: 53% | Activity [8]: 31% | Activity [9]: 114% | Activity [10]: 111% | Activity [11]: 112% | Activity [12]: 115% | Activity [13]: 42% | Activity [14]: 92% | Activity [15]: 90% | Activity [16]: 93% | Activity [17]: 80% | Activity [18]: 67% | IC50 (Angiopoietin-1 receptor): 9.75 µM | AUC(0-inf) [19]: 2120 ng·h/mL | clearance [20]: 36.6 mL/min/kg | Vd [21]: 8.22 L/kg | half-life [22]: 7.61 h | Cmax [23]: 420 ng/mL | bioavailability [24]: 17% | GI50 (cells): 0.54 µM

From ChEMBL document CHEMBL3856191, “Structural modifications at the 6-position of thieno[2,3-d]pyrimidines and their effects on potency at FLT3 for treatment of acute myeloid leukemia” (Eur J Med Chem, 2016)
